Structures can show the parent of a compound that is named as a salt.
Assay: in vitro
Conditions: rat, gh3-tre-luc cells

Row | Structure (SMILES) | CC50 at 24 h (AC50 (uM) modified / 1000) | further results
1 | COc1ccc2cc1Oc1cc3c(cc1OC)CC[N+](C)(C)[C@H]3Cc1ccc(cc1)Oc1c(OC)c(OC)cc3c1[C@@H](C2)[N+](C)(C)CC3 [Metocurine iodide] | > 50 µM | –
2 | CCc1cccc(C)c1N(C(=O)CCl)C(C)COC (centres unmarked) [Metolachlor] | > 90 µM | –
3 | Cc1ccccc1N1C(=O)c2cc(S(N)(=O)=O)c(Cl)cc2NC1C (centres unmarked) [Metolazone] | > 50 µM | –
4 | COC(=O)c1cncn1C(C)c1ccccc1 (centres unmarked) [Metomidate hydrochloride] | – | CC50 at 24 h (AC50 (uM) modified / 1000, Tox21_110001=Tox21_110988, viability, 1 nM T3 present, 24 h): > 50 µM
5 | COCCc1ccc(OCC(O)CNC(C)C)cc1 (centres unmarked) [Metoprolol tartrate] | > 50 µM | –
6 | COC(=O)[C@H]1[C@H]2C[C@@H]3c4[nH]c5cc(OC)ccc5c4CCN3C[C@H]2C[C@H](OC)[C@@H]1OC [Metoserpate hydrochloride] | > 50 µM | –
7 | COc1ccc2c(c1)c1c3n2CCN(C)C3=NCC1 [Metralindole] | > 50 µM | –
8 | CSc1nnc(C(C)(C)C)c(=O)n1N [Metribuzin] | > 90 µM | –
9 | Cc1ccccc1CNc1ncnc2c1ncn2[C@@H]1O[C@H](CO)[C@@H](O)[C@H]1O [Metrifudil] | > 50 µM | –
10 | CC(=O)Nc1c(I)c(C(=O)N[C@H]2C(O)O[C@H](CO)[C@@H](O)[C@@H]2O)c(I)c(N(C)C(C)=O)c1I (some centres unmarked) [Metrizamide] | > 20 µM | –
11 | CC(=O)Nc1c(I)c(C(=O)O)c(I)c(N(C)C(C)=O)c1I [Metrizoate sodium] | > 50 µM | –
12 | Cc1ncc([N+](=O)[O-])n1CCO [Metronidazole] | > 50 µM | –
13 | COC(=O)c1ccccc1S(=O)(=O)NC(=O)Nc1nc(C)nc(OC)n1 [Metsulfuron-methyl] | > 90 µM | –
14 | CC(C)(C(=O)c1cccnc1)c1cccnc1 [Metyrapone] | > 20 µM | –
15 | C[C@](N)(Cc1ccc(O)cc1)C(=O)O [Metyrosine] | > 50 µM | –
16 | CC[C@H](C)C(=O)O[C@H]1CCC=C2C=C[C@H](C)[C@H](CC[C@@H]3C[C@@H](O)CC(=O)O3)[C@H]21 [Mevastatin] | > 50 µM | –
17 | CNC(=O)Oc1cc(C)c(N(C)C)c(C)c1 [Mexacarbate] | – | CC50 at 24 h (AC50 (uM) modified / 1000, Tox21_110001=Tox21_200649, viability, 1 nM T3 present, 24 h): > 90 µM
18 | COc1ccc(C(=O)c2ccc(C)cc2)c(O)c1 [Mexenone] | > 90 µM | –
19 | Cc1cccc(C)c1OCC(C)N (centres unmarked) [Mexiletene hydrochloride] | > 50 µM | –
20 | CC1(C)S[C@@H]2[C@H](NC(=O)[C@H](NC(=O)N3CCN(S(C)(=O)=O)C3=O)c3ccccc3)C(=O)N2[C@H]1C(=O)O [Mezlocillin] | > 50 µM | –
21 | CN1CCN2c3ccccc3Cc3ccccc3C2C1 (centres unmarked) [Mianserin] | 20.6 µM | –
22 | COCC(=O)O[C@]1(CCN(C)CCCc2nc3ccccc3[nH]2)CCc2cc(F)ccc2[C@@H]1C(C)C [Mibefradil dihydrochloride] | 1.9 µM | –
23 | Clc1ccc(COC(Cn2ccnc2)c2ccc(Cl)cc2Cl)c(Cl)c1 (centres unmarked) [Miconazole] | 15 µM | –
24 | CNC[C@@H]1CC[C@@H](N)[C@@H](O[C@H]2[C@H](O)[C@@H](O[C@H]3OC[C@](C)(O)[C@H](NC)[C@H]3O)[C@H](N)C[C@@H]2N)O1 [Micronomicin sulfate] | > 50 µM | –
25 | O=C(O)[C@H]1CN(C/C=C/P(=O)(O)O)CCN1 [Midafotel] | > 50 µM | –
26 | Cc1ncc2n1-c1ccc(Cl)cc1C(c1ccccc1F)=NC2 [Midazolam hydrochloride] | > 50 µM | –

Row | Structure (SMILES) | CC50 at 24 h (AC50 (uM) modified / 1000) | further results
27 | CCC(=O)O[C@@H]1CC(=O)O[C@H](C)C/C=C/C=C/[C@H](O)[C@H](C)C[C@H](CC=O)[C@H](O[C@@H]2O[C@H](C)[C@@H](O[C@H]3C[C@@](C)(O)[C@@H](OC(=O)CC)[C@H](C)O3)[C@H](N(C)C)[C@H]2O)[C@H]1OC [Midecamycin] | > 20 µM | –
28 | COP(=O)(OC)OC(c1ccc(Cl)cc1)P(=O)(OC)OC (centres unmarked) [Mifobate] | > 50 µM | –
29 | OCCN1C[C@H](O)[C@@H](O)[C@H](O)[C@H]1CO [Miglitol] | > 50 µM | –
30 | CCCCN1C[C@H](O)[C@@H](O)[C@H](O)[C@H]1CO [Miglustat] | > 50 µM | –
31 | Cc1[nH]c(=O)c(C#N)cc1-c1ccncc1 [Milrinone] | > 90 µM | –
32 | CCCCCCCCCCCCCCCCOP(=O)([O-])OCC[N+](C)(C)C [Miltefosine] | > 50 µM | –
33 | Cc1cc(-c2ccccc2)nnc1NCCN1CCOCC1 [Minaprine dihydrochloride] | > 50 µM | –
34 | CN(C)c1ccc(O)c2c1C[C@H]1C[C@H]3[C@H](N(C)C)C(O)=C(C(N)=O)C(=O)[C@@]3(O)C(O)=C1C2=O [Minocycline hydrochloride] | > 90 µM | –
35 | O=P(O)(O)C(O)(Cc1cnc2ccccn12)P(=O)(O)O [Minodronic acid] | > 50 µM | –
36 | CCCCCCCCCCCCCCCCCCNC(=O)OC1CCN(C(=O)OC[C@H](COC(=O)N(Cc2cccc[n+]2CC)C(=O)c2ccccc2OC)OC)CC1 [Minopafant] | 13.6 µM | –
37 | N=c1nc(N2CCCCC2)cc(N)n1O [Minoxidil] | > 50 µM | –
38 | ClC1(Cl)C2(Cl)C3(Cl)C4(Cl)C(Cl)(Cl)C5(Cl)C3(Cl)C1(Cl)C5(Cl)C24Cl (centres unmarked) [Mirex] | – | CC50 at 24 h (AC50 (uM) modified / 1000, Tox21_110001=Tox21_300592, viability, 1 nM T3 present, 24 h): > 90 µM
39 | CCCCCCCCCCCCCC[n+]1ccc(C)cc1 [Miripirium chloride] | 7.5 µM | –
40 | CN1CCN2c3ncccc3Cc3ccccc3C2C1 (centres unmarked) [Mirtazapine] | > 50 µM | –
41 | O=C(O)[C@H](CC(=O)N1C[C@H]2CCCC[C@H]2C1)Cc1ccccc1 [Mitiglinide calcium dihydrate] | > 50 µM | –
42 | CO[C@@]12[C@H](COC(N)=O)C3=C(C(=O)C(C)=C(N)C3=O)N1C[C@@H]1N[C@@H]12 [Mitomycin C] | 2.52 µM | –
43 | O=C1c2c(O)ccc(O)c2C(=O)c2c(NCCNCCO)ccc(NCCNCCO)c21 [Mitoxantrone dihydrochloride] | 0.988 µM | –
44 | COc1cc2c(cc1OC)[C@@H](Cc1cc(OC)c(OC)c(OC)c1)[N+](C)(CCCOC(=O)CC/C=C/CCC(=O)OCCC[N+]1(C)CCc3cc(OC)c(OC)cc3[C@H]1Cc1cc(OC)c(OC)c(OC)c1)CC2 (some centres unmarked) [Mivacurium chloride] | > 50 µM | –
45 | CN(c1nccc(=O)[nH]1)C1CCN(c2nc3ccccc3n2Cc2ccc(F)cc2)CC1 [Mizolastine] | > 50 µM | –
46 | NC(=O)c1ncn([C@@H]2O[C@H](CO)[C@@H](O)[C@H]2O)c1O [Mizoribine] | > 50 µM | –
47 | O=C(NCCN1CCOCC1)c1ccc(Cl)cc1 [Moclobemide] | > 50 µM | –
48 | NC(=O)C[S+]([O-])C(c1ccccc1)c1ccccc1 (centres unmarked) [Modafinil] | – | CC50 at 24 h (AC50 (uM) modified / 1000, Tox21_110001=Tox21_111470, viability, 1 nM T3 present, 24 h): > 50 µM
49 | CCOC(=O)[C@H](CCc1ccccc1)N[C@@H](C)C(=O)N1Cc2cc(OC)c(OC)cc2C[C@H]1C(=O)O [Moexipril hydrochloride] | > 50 µM | –
50 | COc1ccc(-c2noc(CC(=O)O)c2-c2ccc(OC)cc2)cc1 [Mofezolac] | > 50 µM | –
51 | CCSC(=O)N1CCCCCC1 [Molinate] | > 90 µM | –
52 | CCc1c(C)[nH]c2c1C(=O)C(CN1CCOCC1)CC2 (centres unmarked) [Molindone hydrochloride] | > 20 µM | –

Row | Structure (SMILES) | CC50 at 24 h (AC50 (uM) modified / 1000) | further results
53 | COc1ccc(C(=O)N2CCN(CC(=O)N3CCOCC3)CC2)cc1 [Molracetam] | > 50 µM | –
54 | CCOC(=O)[N-]c1cn(N2CCOCC2)n[o+]1 [Molsidomine] | > 20 µM | –
55 | C[C@@H]1C[C@H]2[C@@H]3CCC4=CC(=O)C=C[C@]4(C)[C@@]3(Cl)[C@@H](O)C[C@]2(C)[C@@]1(OC(=O)c1ccco1)C(=O)CCl [Mometasone furoate] | > 20 µM | –
56 | O=C(CCCN1CCN(c2ccc(F)cc2)CC1)NC1c2ccccc2CSc2ccccc21 (centres unmarked) [Monatepil] | 11.9 µM | –
57 | O=C(O)c1ccccc1C(=O)OCc1ccccc1 [Monobenzyl phthalate] | > 90 µM | –
58 | CCCCOC(=O)c1ccccc1C(=O)O [Monobutyl phthalate] | > 90 µM | –
59 | C[C@H]1C(=O)O[C@@H]2CCN3CC=C(COC(=O)[C@](C)(O)[C@]1(C)O)[C@H]23 [Monocrotaline] | > 90 µM | –
60 | CNC(=O)/C=C(\C)OP(=O)(OC)OC [Monocrotophos] | – | CC50 at 24 h (AC50 (uM) modified / 1000, Tox21_110001=Tox21_300806, viability, 1 nM T3 present, 24 h): > 90 µM
61 | CON(C)C(=O)Nc1ccc(Cl)cc1 [Monolinuron] | – | CC50 at 24 h (AC50 (uM) modified / 1000, Tox21_110001=Tox21_301360, viability, 1 nM T3 present, 24 h): > 90 µM
62 | COC(=O)c1ccccc1C(=O)O [Monomethyl phthalate] | > 90 µM | –
63 | COC(=O)CCC(=O)O [Monomethyl succinate] | > 90 µM | –
64 | Cc1ncc(C[n+]2csc(CCOP(=O)(O)O)c2C)c(N)n1 [Monophosphothiamine] | > 50 µM | –
65 | Nc1cc(S(=O)(=O)O)cc2cc(S(=O)(=O)O)cc(O)c12 [Monosodium 8-amino-1-naphthol-3,6-disulfonate] | > 90 µM | –
66 | CCCCCCCCCCCCCOP(=O)(O)O [Monotridecyl phosphate] | > 90 µM | –
67 | CC(C)(O)c1ccccc1CC[C@@H](SCC1(CC(=O)O)CC1)c1cccc(/C=C/c2ccc3ccc(Cl)cc3n2)c1 [Montelukast sodium] | 35.1 µM | –
68 | CN(C)C(=O)Nc1ccc(Cl)cc1 [Monuron] | > 90 µM | –
69 | Cc1ccc(C2(O)CCN(CCCC(=O)c3ccc(F)cc3)CC2)cc1 [Moperone] | 30.1 µM | –
70 | Cc1ccsc1/C=C/C1=NCCCN1C [Morantel tartrate] | > 20 µM | –
71 | CCOC(=O)Nc1ccc2c(c1)N(C(=O)CCN1CCOCC1)c1ccccc1S2 [Moricizine hydrochloride] | > 20 µM | –
72 | O=c1c(O)c(-c2ccc(O)cc2O)oc2cc(O)cc(O)c12 [Morin hydrate] | > 90 µM | –
73 | N=C(N)/N=C(\N)N1CCOCC1 [Moroxidine hydrochloride] | > 20 µM | –
74 | O=C(NCN1CCOCC1)c1cnccn1 [Morphazinamide] | > 50 µM | –
75 | C1COCCN1 [Morpholine] | > 100 µM | –
76 | O=C1NC2CCCCN2C12CCN(CCCN1c3ccccc3CCc3ccc(Cl)cc31)CC2 (centres unmarked) [Mosapramine] | 5.62 µM | –
77 | CCOc1cc(N)c(Cl)cc1C(=O)NCC1CN(Cc2ccc(F)cc2)CCO1 (centres unmarked) [Mosapride citrate] | > 50 µM | –

— publication PMC6792352, “Limited Chemical Structural Diversity Found to Modulate Thyroid Hormone Receptor in the Tox21 Chemical Library” (Environmental Health Perspectives, 2019)
